From the supplement of paper PMC10307832

What was measured:
Test in all cases: relative viability (nuclei count vs DMSO), 5 days (fraction); higher = more cells survive
[1] = compound: CC1=CC(=CC=C1)NC2=NC(=CS2)C3=CC=NC=C3 + CC1(C)CCC(c2ccc(Cl)cc2)=C(CN2CCN(c3ccc(C(=O)NS(=O)(=O)c4ccc(N[C@H](CCN5CCOCC5)CSc5ccccc5)c(S(=O)(=O)C(F)(F)F)c4)cc3)CC2)C1 [Navitoclax] (partner 0.5 µM)
In short: (§1)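 One day after seeding in 1536-well plates, lung cancer cell lines were dosed by pin tool. Dosing was either single-drug or a fixed anchor-drug dose plus five library-drug doses (not always all listed) in √10 steps. After 5 days, nuclei were stained in one fix-and-stain step and counted on 4× images, and relative viability is the nuclei count of treated wells over that of vehicle wells, given as the median of duplicate plates.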

[2] = compound: CC1=CC(=CC=C1)NC2=NC(=CS2)C3=CC=NC=C3 + COc1cc2c(Oc3ccc(NC(=O)C4(C(=O)Nc5ccc(F)cc5)CC4)cc3F)ccnc2cc1OCCCN1CCOCC1 [Foretinib] (partner 0.25 µM)
In short: as §1

Masitinib = compound: Cc1ccc(NC(=O)c2ccc(CN3CCN(C)CC3)cc2)cc1Nc1nc(-c2cccnc2)cs1 [Masitinib]
In short: (§2)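 Acceptance criteria were a control CV below 25% and at least one doubling per plate. Lung cancer cell lines in 1536-well plates got five library-drug doses (not always all listed) √10 apart by pinning and were left 5 days with no medium change. Viability divides treated-well nuclei by vehicle-well nuclei and is the median across plates. Nuclei were counted by MetaXpress from 4× Hoechst images.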

[3] = compound: CC1=CC(=CC=C1)NC2=NC(=CS2)C3=CC=NC=C3
In short: as §2

Cell Line | relative viability ([1]; first compound 0.08 µM) | relative viability ([1]; first compound 0.253 µM) | relative viability ([1]; first compound 0.8 µM) | relative viability ([1]; first compound 2.53 µM) | relative viability ([1]; first compound 8 µM) | relative viability ([2]; first compound 0.08 µM) | relative viability ([2]; first compound 0.253 µM) | relative viability ([2]; first compound 0.8 µM) | relative viability ([2]; first compound 2.53 µM) | relative viability ([2]; first compound 8 µM) | relative viability (Masitinib; 0.01 µM) | relative viability (Masitinib; 0.03162 µM) | relative viability (Masitinib; 0.1 µM) | relative viability (Masitinib; 0.3162 µM) | relative viability (Masitinib; 1 µM) | relative viability ([3]; 0.08 µM) | relative viability ([3]; 0.253 µM) | relative viability ([3]; 0.8 µM) | relative viability ([3]; 2.53 µM) | relative viability ([3]; 8 µM)
NCI-H3122 | 1.02 | 1.04 | 1.07 | 1.08 | 1.04 | 0.885 | 0.967 | 0.984 | 0.971 | 1.01 | 0.854 | 1.03 | 0.959 | 1 | 1.08 | 0.983 | 1.05 | 1.04 | 1.06 | 0.972
SK-MES-1 | 0.94 | 1.02 | 1.1 | 1.06 | 1.08 | 0.687 | 0.78 | 0.751 | 1.04 | 0.8 | 0.923 | 0.945 | 1.04 | 0.881 | 0.99 | 0.815 | 0.82 | 0.804 | 0.922 | 0.861
NCI-H2170 | 0.631 | 0.575 | 0.538 | 0.545 | 0.426 | 0.975 | 1.05 | 0.986 | 0.976 | 0.893 | 0.843 | 0.933 | 0.983 | 1.04 | 0.991 | 0.901 | 1.01 | 0.945 | 0.942 | 0.824
EPLC-272H | 1.02 | – | 0.871 | – | 0.979 | 0.657 | 0.711 | 0.623 | 0.597 | 0.723 | 0.887 | 0.788 | 0.962 | 0.866 | 0.815 | 0.856 | 0.793 | 0.813 | 0.732 | 0.958
EBC-1 | 0.376 | 0.381 | 0.516 | 0.391 | 0.227 | 0.0887 | 0.103 | 0.0911 | 0.117 | 0.114 | 0.988 | 0.946 | 1.2 | 0.984 | 0.834 | 0.788 | 0.882 | 0.865 | 0.823 | 0.685
NCI-H1975 | 1.16 | 1.13 | 0.879 | 0.895 | 0.726 | 0.687 | 0.704 | 0.837 | 0.617 | 0.633 | 0.983 | 0.923 | 1.06 | 0.676 | 0.852 | 0.798 | 0.762 | 0.843 | 0.714 | 0.549
NCI-H647 | 0.799 | 0.887 | 0.938 | 1.1 | 0.942 | 0.994 | 1.15 | 1.03 | 1.17 | 1.1 | 0.926 | 0.959 | 1.07 | 0.983 | 0.873 | 0.816 | 0.87 | 0.797 | 0.869 | 0.76
NCI-H441 | 0.327 | 0.42 | 0.673 | 0.64 | 0.777 | 0.754 | 0.791 | 1.12 | 0.857 | 0.842 | 1.01 | 0.956 | 1.09 | 1.25 | 1.07 | 0.957 | 1 | 1.01 | 0.922 | 0.866
NCI-H1355 | 0.783 | 0.69 | 0.591 | 0.555 | 0.577 | 0.882 | 0.749 | 0.663 | 0.685 | 0.71 | 0.813 | 0.723 | 0.851 | 0.762 | 0.966 | 0.769 | 0.73 | 0.768 | 0.694 | 0.65
NCI-H23 | 0.822 | 0.832 | 1 | 0.831 | 0.999 | 1.03 | 0.963 | 1.03 | 0.873 | 0.895 | 0.888 | 0.926 | 1.03 | 0.933 | 0.916 | 0.879 | 0.808 | 1.01 | 0.835 | 0.972
IA-LM | 0.74 | – | 0.769 | 0.439 | 0.401 | 1.04 | 1.16 | 1.03 | 0.941 | 0.838 | 0.885 | 0.901 | 1.01 | 0.977 | 0.982 | 0.856 | 0.772 | 0.9 | 0.76 | 0.677
NCI-H1793 | – | 0.521 | 0.523 | 0.438 | 0.402 | 0.65 | 0.663 | 0.573 | 0.64 | 0.629 | 0.886 | 0.804 | 0.878 | 0.978 | 0.795 | 0.75 | 0.801 | 0.898 | 0.816 | 0.841
NCI-H2087 | 0.963 | 0.996 | 0.945 | 0.799 | 0.82 | 0.996 | 1.12 | 0.994 | 1.05 | 0.688 | 0.961 | 1.22 | 1.07 | 1.18 | 1.01 | 0.951 | 0.895 | 1.01 | 0.877 | 0.93
NCI-H838 | 0.954 | 1.09 | 1.04 | 1.09 | 0.924 | 0.838 | 0.861 | 0.923 | 1.04 | 0.866 | 0.867 | 0.855 | 0.955 | 0.907 | 0.929 | 0.823 | 0.891 | 0.894 | 0.835 | 0.846
NCI-H460 | 1.13 | 1.08 | 1.08 | 1.13 | 1 | 0.915 | 0.894 | 0.948 | 0.924 | 0.82 | 0.864 | 1.01 | 0.949 | 0.876 | 0.983 | 0.965 | 0.908 | 0.936 | 0.884 | 0.857
